The values that follow come from PubChem BioAssay (NCI).

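Briefly, cells in 96-well plates were exposed to five compound concentrations for 48 h, and endpoints were estimated by linear interpolation. TGI denotes the concentration required for complete inhibition of growth.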 Where a SMILES comes first, the peptide text is derived from it. The star is where a group is joined. Boc = CC(C)(C)OC(=O)*

Test in all cases: NCI tumour cell line growth inhibition, 48 h
Experiment [1] concerns HS 578T breast.
Experiment [2] relates to SK-MEL-28 melanoma.
The test system of experiment [3] is OVCAR-5 ovarian.
The test system of experiment [4] is SK-MEL-5 melanoma.
The test system of experiment [5] is NCI-H522 lung.
Experiment [6] relates to SK-OV-3 ovarian.
The test system of experiment [7] is COLO 205 colon.
The subject of experiment [8] is A549 NSCLC.
Experiment [9] deals with SNB-19 CNS.
The test system of experiment [10] is PC-3 prostate.
Experiment [11] relates to UACC-257 melanoma.
Experiment [12] has as its system HT29 colon.
For experiment [13], the system named is HCC-2998 colon.
Experiment [14] deals with HOP-62 NSCLC.
In experiment [15] the test system is SW-620 colon.
In experiment [16] the test system is MDA-N.
Experiment [17] has as its system SF-539 CNS.
The subject of experiment [18] is CAKI-1 renal.
For experiment [19], the system named is SNB-75 CNS.
Experiment [20] has as its system TK-10 renal.

On to `Cc1cc(C)nc(NS(=O)(=O)c2ccc(Nc3nncc(=O)n3N)cc2)n1`, for which the TGI in experiment [1] is greater than 100 µM; in [2], 74.6 µM; in experiment [3] it was 37.2 µM; in experiment [4] it was 33.1 µM; in experiment [5] it was 26.2 µM; in experiment [6], greater than 100 µM. Besides, the TGI is greater than 100 µM in [7]; greater than 100 µM in experiment [8]; 83 µM in [9]; 54.9 µM in [10]; 43.9 µM in experiment [11]; 32.2 µM in [12]. The TGI is 80.7 µM in experiment [13]; 34.7 µM in experiment [14]; 44.2 µM in [15]; 30 µM in experiment [16]; greater than 100 µM in experiment [17]; 29.5 µM in [18].
Take `CCOP(C)(=O)C(Cc1c[nH]c2ccccc12)C(=O)O` (centres undefined): the TGI in experiment [2], in experiment [3], in experiment [4], in experiment [5], in [6] and in experiment [7] was greater than 100 µM in each case. The TGI in [8], in experiment [9], in experiment [10], in experiment [12], in [13] and in experiment [14] was greater than 100 µM in each case. The TGI in [15], in experiment [16], in experiment [17], in experiment [19] and in experiment [18] was greater than 100 µM each time.
`COc1c(C)c(C/C=C(\C)CCCCO[Si](C(C)C)(C(C)C)C(C)C)c(OC)c2ccccc12`: the TGI in experiment [1], in experiment [3], in [4], in experiment [5], in experiment [6] and in [7] was greater than 100 µM each time. Further, the TGI in [8], in experiment [9], in experiment [20], in experiment [10], in experiment [11] and in experiment [12] was greater than 100 µM each time. For the same compound, the TGI in experiment [14], in experiment [15], in [16], in experiment [17], in [19] and in experiment [18] was greater than 100 µM in each case.
On to `CC(NC(=O)C(NC(=O)OC(C)(C)C)C(C)C)C(=O)N1CCCC1C(=O)NCC(=O)NC(C(=O)NCC(=O)O)C(C)C` (centres undefined) (Boc-VAPGVG-OH; configuration not given here), for which the TGI in experiment [2], in experiment [3], in [5], in experiment [6], in experiment [7] and in experiment [9] was greater than 100 µM each time. Besides, the TGI in experiment [20], in experiment [10], in experiment [11], in experiment [12], in experiment [13] and in experiment [14] was greater than 100 µM each time. Moreover, the TGI in [15], in experiment [16], in [17], in experiment [19] and in experiment [18] was greater than 100 µM in each case.
As for `COc1ccc2cc(C(C)C(O)c3cc(F)c(F)c(F)c3F)ccc2c1` (centres undefined), the TGI in experiment [2], in experiment [3], in experiment [4], in experiment [6], in [7] and in [8] was greater than 100 µM in each case. The TGI in [9], in experiment [20], in [10], in experiment [11], in experiment [12] and in experiment [13] was greater than 100 µM in each case. Further, the TGI was greater than 100 µM in [14], greater than 100 µM in experiment [15], greater than 100 µM in [16] and 43.6 µM in experiment [19].
Regarding `COC(=O)[C@@H]1CN(C(=O)c2ccccc2)C(=O)N1`, the TGI in [1], in experiment [2], in [3], in [4], in experiment [5] and in experiment [8] was greater than 100 µM throughout. Besides, the TGI in [9], in experiment [20], in experiment [10], in [11], in [12] and in [14] was greater than 100 µM throughout. Moreover, the TGI in experiment [15], in experiment [16], in experiment [17] and in experiment [19] was greater than 100 µM throughout.
Consider `CCOC(=O)Cc1nnc2c(-c3ccccc3)nc3ccccc3n12`, for which the TGI in [2] is greater than 100 µM; in experiment [3], greater than 100 µM; in experiment [4], greater than 100 µM; in experiment [6], 67.6 µM; in experiment [7], greater than 100 µM; in [8], greater than 100 µM. The TGI was 62.1 µM in experiment [9]; greater than 100 µM in [20]; greater than 100 µM in experiment [10]; greater than 100 µM in [11]; greater than 100 µM in experiment [12]; 64.8 µM in experiment [13]. Also, the TGI in experiment [14] is 27.6 µM; in experiment [15], greater than 100 µM; in experiment [16], greater than 100 µM; in [17] it was greater than 100 µM.
With `CC(=O)OC1CCN(C(=O)c2ccccc2)CC1CC1(c2cc3ccccc3[nH]2)OCCO1` (centres undefined), the TGI in [2], in experiment [3], in [4], in experiment [5], in experiment [6] and in [7] was greater than 100 µM each time. Moreover, the TGI in experiment [8], in experiment [9], in experiment [20], in [10], in [11] and in [12] was greater than 100 µM each time. Moreover, the TGI in [13], in [14], in [15], in experiment [16], in experiment [19] and in [18] was greater than 100 µM in each case.
Consider `N#Cc1ccc(Oc2nc3ccccc3nc2-c2ccccc2)cc1`, for which the TGI in experiment [1], in experiment [2], in [3], in experiment [4], in experiment [5] and in experiment [6] was greater than 100 µM in each case. Besides, the TGI in [7], in experiment [9], in experiment [20], in experiment [10], in experiment [11] and in experiment [12] was greater than 100 µM throughout. Moreover, the TGI in [13], in [14], in [15], in experiment [16] and in experiment [18] was greater than 100 µM each time.
As to `CN(NC(=O)c1ccco1)C1=NCCN1`, the TGI in experiment [1], in experiment [2], in experiment [3], in experiment [4], in experiment [5] and in experiment [6] was greater than 100 µM in each case. For the same compound, the TGI in experiment [7], in experiment [8], in [9], in experiment [20], in [10] and in experiment [11] was greater than 100 µM in each case. The TGI in experiment [12], in experiment [13], in experiment [14], in [15], in experiment [16] and in [17] was greater than 100 µM in each case. In addition, the TGI in experiment [19] was greater than 100 µM.
As to `C/C=C/c1c(O)c(=O)c2c(OC)cc(OC)c3c4c(OC)cc(OC)c5c(=O)c(O)c(/C=C/C)c(c1c23)c54`, the TGI in experiment [2] is 36.6 µM; in experiment [3], 68.9 µM; in experiment [4], 24.3 µM; in experiment [5] it was 16.9 µM; in [6], greater than 100 µM; in experiment [7], 19.1 µM. In addition, the TGI in [8] was greater than 100 µM; in experiment [9], 17.2 µM; in experiment [10] it was 19.8 µM; in experiment [11], 45.5 µM; in experiment [12], 23.8 µM; in experiment [13], greater than 100 µM. Moreover, the TGI was 54.5 µM in experiment [14]; 87.8 µM in experiment [15]; 29.4 µM in [16]; greater than 100 µM in experiment [17]; 28.7 µM in [19]; 21.1 µM in experiment [18].
For the compound `C[C@H]1O[C@@H](c2c(O)ccc3ccccc23)C[C@@H](N(C)C)C1O` (some centres undefined), the TGI in [1], in experiment [2], in experiment [3], in experiment [4], in experiment [5] and in experiment [6] was greater than 100 µM throughout. The TGI in experiment [7], in [8], in experiment [9], in experiment [20], in [10] and in experiment [11] was greater than 100 µM in each case. The TGI in experiment [12], in [13], in [14], in experiment [15], in experiment [16] and in experiment [17] was greater than 100 µM each time. In addition, the TGI in experiment [19] was greater than 100 µM.
On to `CC(=O)Oc1ccc2c(c1)Oc1cc(C(C)=O)ccc1C21OC(=O)c2ccccc21` (centres undefined), for which the TGI in experiment [2], in [3], in experiment [4], in experiment [5], in [6] and in experiment [7] was greater than 100 µM in each case. In addition, the TGI in [8], in experiment [9], in experiment [20], in experiment [10], in [11] and in experiment [12] was greater than 100 µM each time. The TGI in [13], in experiment [14], in experiment [15], in experiment [16], in [19] and in [18] was greater than 100 µM throughout.
As to `C#CCOC(=O)c1ccccc1O`, the TGI in [1], in experiment [3], in [4], in experiment [5], in [6] and in experiment [7] was greater than 100 µM each time. Moreover, the TGI in experiment [9], in [20], in [10], in experiment [11], in experiment [14] and in experiment [15] was greater than 100 µM each time. Further, the TGI in experiment [16], in [17], in experiment [19] and in experiment [18] was greater than 100 µM in each case.
In the case of `COc1cc(N=CN(C)C)c2ncccc2c1`, the TGI in experiment [1], in [2], in experiment [3], in experiment [4], in [5] and in experiment [6] was greater than 100 µM each time. Also, the TGI in [7], in [8], in [9], in experiment [20], in experiment [10] and in experiment [11] was greater than 100 µM throughout. The TGI is greater than 100 µM in experiment [12]; greater than 100 µM in experiment [14]; 56 µM in experiment [16]; greater than 100 µM in [17]; greater than 100 µM in [19]; greater than 100 µM in experiment [18].
Consider `CC(C)CNC(=O)CCc1cccc2c1oc1c(CCN)cccc12`, for which the TGI in experiment [2] amounted to 23.8 µM; in [3], 28.7 µM; in experiment [4], 27.2 µM; in [5] it was 29.6 µM; in [6], 31.6 µM; in experiment [7], 19.7 µM. Further, the TGI in [8] is 35.6 µM; in experiment [9], 15.9 µM; in [10], 34.3 µM; in [11] it was 24.8 µM; in experiment [12], 22.6 µM; in [13] it was 29.3 µM. The TGI came to 33.7 µM in experiment [14]; 27.5 µM in experiment [15]; 40.5 µM in experiment [16]; 30.3 µM in experiment [17]; 20.1 µM in [19]; 31.5 µM in experiment [18].
